Reference: publication PMC9297976 (Journal of Applied Toxicology, 2021)

Legend:
medaka Esr1 (mEsr1) [1] = molecular target: T1, medaka Esr1 (mEsr1) (Oryzias latipes, UniProt P50241); experiment: cell-based; parameters: species or system Japanese medaka (Oryzias latipes)
T1 sequence (P50241 1-620): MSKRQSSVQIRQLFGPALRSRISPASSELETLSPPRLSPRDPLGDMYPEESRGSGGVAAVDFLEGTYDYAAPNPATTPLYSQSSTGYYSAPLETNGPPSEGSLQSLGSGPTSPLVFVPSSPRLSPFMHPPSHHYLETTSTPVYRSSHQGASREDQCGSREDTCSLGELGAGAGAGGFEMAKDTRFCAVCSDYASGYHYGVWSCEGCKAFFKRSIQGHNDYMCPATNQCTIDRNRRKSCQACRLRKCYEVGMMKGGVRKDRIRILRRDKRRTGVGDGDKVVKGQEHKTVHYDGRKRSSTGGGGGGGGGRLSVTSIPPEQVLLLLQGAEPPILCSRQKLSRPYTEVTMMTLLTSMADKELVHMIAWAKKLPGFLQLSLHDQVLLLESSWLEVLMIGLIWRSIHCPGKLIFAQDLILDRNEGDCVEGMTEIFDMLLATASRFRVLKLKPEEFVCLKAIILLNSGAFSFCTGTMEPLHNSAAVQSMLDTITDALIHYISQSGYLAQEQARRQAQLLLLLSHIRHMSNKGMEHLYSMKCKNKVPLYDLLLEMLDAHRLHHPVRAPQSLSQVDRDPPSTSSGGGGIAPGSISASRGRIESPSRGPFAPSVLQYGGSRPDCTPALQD

medaka ARβ (mArβ) [2] = molecular target: T2, medaka ARβ (mArβ) (Oryzias latipes, UniProt D1MV73); experiment: Medaka ARβ reporter gene assay, agonist assay; assay type: cell-based, Japanese medaka (Oryzias latipes); conditions: MAC = 1.0 × 10^−5 M
T2 sequence (D1MV73 1-744): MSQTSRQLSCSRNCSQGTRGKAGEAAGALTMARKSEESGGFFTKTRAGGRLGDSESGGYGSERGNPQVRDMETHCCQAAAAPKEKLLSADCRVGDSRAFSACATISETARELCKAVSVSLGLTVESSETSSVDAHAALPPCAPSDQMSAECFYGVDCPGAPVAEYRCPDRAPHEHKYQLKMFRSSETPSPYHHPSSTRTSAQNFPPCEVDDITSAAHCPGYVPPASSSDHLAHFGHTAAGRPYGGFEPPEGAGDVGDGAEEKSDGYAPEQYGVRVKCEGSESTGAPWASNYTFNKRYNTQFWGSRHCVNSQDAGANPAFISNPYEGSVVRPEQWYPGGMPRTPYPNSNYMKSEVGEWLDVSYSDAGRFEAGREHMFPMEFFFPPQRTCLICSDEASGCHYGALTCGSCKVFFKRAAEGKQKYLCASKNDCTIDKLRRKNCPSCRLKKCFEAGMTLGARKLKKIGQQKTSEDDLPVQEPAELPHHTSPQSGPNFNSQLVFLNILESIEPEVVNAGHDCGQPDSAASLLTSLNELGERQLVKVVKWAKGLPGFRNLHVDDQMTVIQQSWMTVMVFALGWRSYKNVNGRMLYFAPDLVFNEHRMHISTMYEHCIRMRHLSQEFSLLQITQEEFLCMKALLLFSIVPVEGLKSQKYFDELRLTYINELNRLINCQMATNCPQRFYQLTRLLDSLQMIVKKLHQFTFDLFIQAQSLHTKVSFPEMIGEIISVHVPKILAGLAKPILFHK

medaka Esr1 (mEsr1) [3] = molecular target: T1, medaka Esr1 (mEsr1); experiment: Medaka Esr1 reporter gene assay, antagonist assay; assay type: cell-based, Japanese medaka (Oryzias latipes); conditions: E2 spiked at 1.0 nM (B); MAC = 1.0 × 10^−5 M
medaka ARβ (mArβ) [4] = molecular target: T2, medaka ARβ (mArβ); experiment: Medaka ARβ reporter gene assay, antagonist assay; assay type: cell-based, Japanese medaka (Oryzias latipes)
[5] = system: Japanese medaka (Oryzias latipes); experiment: Fish Short‐Term Reproduction Assay; assay type: in vivo; conditions: for GSI Female / GSI Male / HSI Female / HSI Male / Length Female / Length Male / Weight Female / Weight Male: completion of exposure
[6] = 4.67 mg/L measured, 21 d, sig. ↑ vs control
[7] = measured concentration 0.155 mg/L
[8] = measured concentration 0.826 mg/L
[9] = measured concentration 4.67 mg/L

## CC(C)(c1ccc(O)cc1)c1ccc(O)cc1 [BPA, Bisphenol A]
Medaka Esr1 (mEsr1) [1]
  EC50: 0.086 µM
Medaka Esr1 (mEsr1) [1]; mode of action in which EC50 or PC10 was obtained in RGA
  In vitro positive: Esr: Esr
Medaka ARβ (mArβ) [2]
  Agonistic activity: NE (MAC = 1.0 × 10^−5 M)
Medaka Esr1 (mEsr1) [3]
  Antagonistic activity: NE (MAC = 1.0 × 10^−5 M)^(B)
Medaka ARβ (mArβ) [4]
  IC50: 7 µM
Medaka ARβ (mArβ) [4]; mode of action in which IC50 or IC30 was obtained in RGA
  In vitro positive: aAr: aAr
Medaka ARβ (mArβ) [4]; transcriptional activity on mArβ by 11KT
  Antagonistic activity on mArβ (in words): inhibitory potency
[5]; 0.155 mg/L measured, 21 d
  Fertility rate: 96 ± 2.1%
  Hepatic VTG, female: 435 ± 65 ng/mg‐liver
  Hepatic VTG, male: 0.5 ± 0.0 ng/mg‐liver
  Mortality: 17%
  Mortality, number of dead fish: 4
  Number of total eggs (per female per day): 14 ± 1.8
  SSC female (joint plates with papillary processes): 0 ± 0
  SSC male (joint plates with papillary processes): 74 ± 3.6
[5]; 0.826 mg/L measured, 21 d
  Fertility rate: 94 ± 1.9%
  Hepatic VTG, female: 768 ± 297 ng/mg‐liver
  Hepatic VTG, male: 0.5 ± 0.0 ng/mg‐liver
  Mortality: 8.3%
  Mortality, number of dead fish: 2
  Number of total eggs (per female per day): 14 ± 1.6
  SSC female (joint plates with papillary processes): 0 ± 0
  SSC male (joint plates with papillary processes): 71 ± 4.2
[5]; 4.67 mg/L measured, 21 d
  Hepatic VTG, female: 3,456 ng/mg‐liver
  SSC female (joint plates with papillary processes): 0 ± 0
  SSC male (joint plates with papillary processes): 76 ± 5.7
[5]; [6]
  Hepatic VTG, male: 2,804 ± 811 ng/mg‐liver
  Mortality: 71%
  Mortality, number of dead fish: 17
[5]; 4.67 mg/L measured, 21 d, sig. ↓ vs control
  Fertility rate: 59 ± 25%
[5]; 21 d
  Fecundity, number of total eggs (in words): statistically significant decrease
  LOEC, elevated hepatic VTG in males: 4.67 mg/L
[5]; LOEC on reproduction (fecundity and/or fertility)
  LOECREPRO: 4,670 μg/L
[5]; Oryzias latipes, 504 h, read-out: LOECmVTG
  minimal effective concentration: 4.67 µg/mL
[5]; at concentrations that did not affect number of total eggs
  Fertility rate (in words): significant decrease
[5]; lowest observed effect concentration on mortality
  LOECTOX: 4,670 μg/L
[5]; [7]
  GSI Female: 6.8 ± 0.5%
  GSI Male: 0.91 ± 0.13%
  HSI Female: 3.4 ± 0.46%
  HSI Male: 2.1 ± 0.40%
  Length Female: 31.7 ± 0.9 mm
  Length Male: 33.2 ± 0.9 mm
  Weight Female: 313 ± 23 mg
  Weight Male: 290 ± 23 mg
[5]; [8]
  GSI Female: 6.0 ± 1.0%
  GSI Male: 0.80 ± 0.23%
  HSI Female: 3.3 ± 0.75%
  HSI Male: 2.3 ± 0.45%
  Length Female: 32.0 ± 0.9 mm
  Length Male: 32.5 ± 0.9 mm
  Weight Female: 342 ± 20 mg
  Weight Male: 310 ± 10 mg
[5]; [9]
  GSI Female: 2.3%
  GSI Male: 0.77 ± 0.23%
  HSI Female: 4.8%
  HSI Male: 3.4 ± 1.15%
  Length Female: 30.6 mm
  Length Male: 33.6 ± 1.9 mm
  Weight Female: 281 mg
  Weight Male: 370 ± 72 mg
